“And” between values parts separate entries of the source, which are not always exact repeats. Identical values can stand only once. Like-named read-outs stand apart in the source and are kept apart here.
Biological target: HIV-1LAI envelope gp120 (Human immunodeficiency virus type 1 group M subtype B, UniProt P03377)
Type: binding
Details: for Counts per 20′ Average-background: CCR5 18-mer scan; for Counts per 20′ Average-background / percentage of binding of mutant polypeptide compared to wild-type polypeptide, gp120: radiolabeled HIV-1LAI gp120; for Relative % of Control: mean of two syntheses and binding experiments ± average deviation, wild-type = 100%; for percentage of binding of mutant polypeptide compared to wild-type polypeptide, gp120: CCR5 alanine mutant peptide; for Binding Results For Window Length (counts bound-background), 9 / Binding Results For Window Length (counts bound-background), 12 / Binding Results For Window Length (counts bound-background), 15 / Binding Results For Window Length (counts bound-background), 18: STRL33 amino terminus; for Binding Results For Window Length (counts bound-background), 9: 9-mer starting at the first residue of the printed sequence; for Binding Results For Window Length (counts bound-background), 12: 12-mer starting at the first residue of the printed sequence; for Binding Results For Window Length (counts bound-background), 15: 15-mer starting at the first residue of the printed sequence; for Binding Results For Window Length (counts bound-background), 18: 18-mer starting at the first residue of the printed sequence; for number of radioactive decays (counts) counted: human CD4 21-mer scan, empty control 2075
[1] = Panel D, 9-mers and 12-mers of CD4, empty control […]
[2] = Panel A, 21-mers of CD4, empty control 515 and 617
[3] = CXCR4 18-mer scan, background subtracted, empty control 0
[4] = CXCR4 18-mer scan, empty control 412
[5] = Panel E, 9-mers and 12-mers of CD4, empty control 571
[6] = STRL33 18-mer scan, background subtracted, first of two count columns
[7] = STRL33 18-mer scan, background subtracted, second of two count columns
[8] = Panel C, 15-mers and 18-mers of CD4, empty control 556
[9] = Panel B, 15-mers and 18-mers of CD4, empty control 575
[10] = Panel G, alanine replacements and serial truncations (Z) of CD4 polypeptides, empty control 580
[11] = Panel F, sequential alanine replacements of CD4 polypeptides, duplicate series, empty control 569

DTHLLQGQS
COUNTS of radiolabeled gp120 retained [1]: 578 counts

KVEFKIDIVVLAFQKASSIVY
COUNTS of radiolabeled gp120 retained [2]: 635 counts

NKIFLPTIYSIIFLTGIV [CXCR4 segment 37-54]
radioactive counts recorded in twenty minutes [3]: 138 counts
radioactive counts recorded in twenty minutes [4]: 550 counts

FSFPLAFTVEKL
COUNTS of radiolabeled gp120 retained [5]: 573 counts

LMKFIRSTHWEYYAMTSF [STRL33 segment 249-266]
radioactive counts recorded in twenty minutes [6]: 934.5 counts
radioactive counts recorded in twenty minutes [7]: 949.5 counts

VEFSFPLAFTVEKLTGSG
COUNTS of radiolabeled gp120 retained [8]: 533 counts

ALKTTVILILAFFACWLP [CXCR4 segment 237-254]
radioactive counts recorded in twenty minutes [3]: 261 counts
radioactive counts recorded in twenty minutes [4]: 673 counts

LNPILYAFLGAKFKTSAQ [CXCR4 segment 297-314]
radioactive counts recorded in twenty minutes [3]: 274 counts
radioactive counts recorded in twenty minutes [4]: 686 counts

NSDTHLLQG
COUNTS of radiolabeled gp120 retained [1]: 561 counts

QVEFSFPLLA
Gp120 Bound (counts) (active CD4 fragments: 9-, 12-, 15-, 18- and 21-mers, background not subtracted): 1205 counts

VVLAFQKASSIVYKKEGE
COUNTS of radiolabeled gp120 retained [8]: 560 counts

NYYTSEPCQKINVKQIAA [CCR5 segment 13-30]
Counts per 20′ Average-background (background subtracted): 6 counts per 20′

LVFGLTANSDTH
COUNTS of radiolabeled gp120 retained [1]: 586 counts

FGQVMCKSLLGIYTINFY
radioactive counts recorded in twenty minutes [6]: 1257.5 counts
radioactive counts recorded in twenty minutes [7]: 1354.5 counts

HLLQGQSLTLTLESP
COUNTS of radiolabeled gp120 retained [9]: 1277 counts

ILLEIIKQGCEFENTVHK [CXCR4 segment 265-282]
radioactive counts recorded in twenty minutes [3]: 117 counts
radioactive counts recorded in twenty minutes [4]: 529 counts

AYNQQAKRMTWGKVTSLL [STRL33 segment 137-154]
radioactive counts recorded in twenty minutes [6]: 55.5 counts
radioactive counts recorded in twenty minutes [7]: 4.5 counts

KNLKIEDSDTYICEVEDQ
COUNTS of radiolabeled gp120 retained [9]: 708 counts

MDYQVSSPIYDINYYTSA [CCR5 (1-18) variant E18A]
Relative % of Control (CCR5 (1-18) alanine variants): 4 ± 2%
percentage of binding of mutant polypeptide compared to wild-type polypeptide, gp120: 4.1%

VLAFQKASS
COUNTS of radiolabeled gp120 retained [5]: 466 counts

SFHYTIMVTEAIAYLRAC [STRL33 segment 265-282]
radioactive counts recorded in twenty minutes [6]: 761.5 counts
radioactive counts recorded in twenty minutes [7]: 1033.5 counts

KNFWKLVKDIGCLPYLGV [STRL33 segment 297-314]
radioactive counts recorded in twenty minutes [6]: 143.5 counts
radioactive counts recorded in twenty minutes [7]: 82.5 counts

HDYHEDYGFSSFNDSSQE
Binding Results For Window Length (counts bound-background), 9 (background subtracted): 708 counts
Binding Results For Window Length (counts bound-background), 12 (background subtracted): 1427 counts
Binding Results For Window Length (counts bound-background), 15 (background subtracted): 1772 counts
Binding Results For Window Length (counts bound-background), 18 (background subtracted): 1500 counts

GEQVEASFPLAFTVE
COUNTS of radiolabeled gp120 retained [10]: 6793 counts and 6533 counts

YKKEGEQVEFSFPLA
COUNTS of radiolabeled gp120 retained [8]: 687 counts

LLTQMPFNLMKFIRSTHW
radioactive counts recorded in twenty minutes [6]: 2513.5 counts
radioactive counts recorded in twenty minutes [7]: 3154.5 counts

TYICEVEDQKEE
COUNTS of radiolabeled gp120 retained [1]: 818 counts

TYICEVEDQKEEVQLLVF
COUNTS of radiolabeled gp120 retained [9]: 3794 counts

LLTIDRYLAVVHAVFALK
Counts per 20′ Average-background (background subtracted): 31 counts per 20′

THLLQGQSLTLTLEA
COUNTS of radiolabeled gp120 retained [11]: 5849 counts and 7984 counts

QKHRSLKIIFLVMAVFLL [STRL33 segment 225-242]
radioactive counts recorded in twenty minutes [6]: 810.5 counts
radioactive counts recorded in twenty minutes [7]: 814.5 counts

THLLQGQSLTLTAES
COUNTS of radiolabeled gp120 retained [11]: 862 counts and 797 counts

IKNLKIEDSDTYICE
COUNTS of radiolabeled gp120 retained [9]: 568 counts

QWDFGNTMCQLLTGLYFI [CCR5 segment 93-]
Counts per 20′ Average-background (background subtracted): 1019 counts per 20′

EFKIDIVVLAFQKASSIV
COUNTS of radiolabeled gp120 retained [8]: 799 counts

FSGIFFIILLTIDRYLAV [CCR5 segment 113-]
Counts per 20′ Average-background (background subtracted): 83 counts per 20′

KLQMGKKLPLHLTLPQALPQY
number of radioactive decays (counts) counted: 1949 counts

FPLAFTVEK
COUNTS of radiolabeled gp120 retained [5]: 569 counts

MPFNLMKFIRSTHWEYYA [STRL33 segment 245-262]
radioactive counts recorded in twenty minutes [6]: 2171.5 counts
radioactive counts recorded in twenty minutes [7]: 2182.5 counts

HSSVSTESESSSFHSS
radioactive counts recorded in twenty minutes [3]: 103 counts
radioactive counts recorded in twenty minutes [4]: 515 counts

VFASLPGIIFTRSQKEGL [CCR5 segment 157-]
Counts per 20′ Average-background (background subtracted): 54 counts per 20′

LPPLYSLVFIFGFVGNML [CCR5 segment 33-50]
Counts per 20′ Average-background (background subtracted): 705 counts per 20′

QKEEVQLLVFGLTAN
COUNTS of radiolabeled gp120 retained [9]: 3770 counts

TVLQNQKKVEFKIDIVVL
COUNTS of radiolabeled gp120 retained [8]: 655 counts

CYSGILKTLLRCRNEKKR
Counts per 20′ Average-background (background subtracted): 70 counts per 20′

MEGISAYTSDNYTEEMGS
Relative % of Control (CXCR4 (1-18) alanine variants): 2 ± 1%

VQLLVFGLT
COUNTS of radiolabeled gp120 retained [1]: 815 counts

EEVQLLVFGLTANAD
COUNTS of radiolabeled gp120 retained [11]: 17928 counts and 17684 counts

PFRELLLVLQLALLPAATQGK [human CD4, printed 16-26]
number of radioactive decays (counts) counted: 4356 counts

IIKNLKIEDSDTYICEVE
COUNTS of radiolabeled gp120 retained [9]: 751 counts

ASSIVYKKEGEQVEF
COUNTS of radiolabeled gp120 retained [8]: 589 counts

IDIVVLAFQKAS
COUNTS of radiolabeled gp120 retained [5]: 630 counts

EVQLLVFGLTAN
COUNTS of radiolabeled gp120 retained [1]: 1838 counts

QKKVEFKID
COUNTS of radiolabeled gp120 retained [5]: 575 counts

MDYQVSSAIYDINYYTSE
Relative % of Control (CCR5 (1-18) alanine variants): 157 ± 2%

LILAFISLDRYLAIVHAT
radioactive counts recorded in twenty minutes [3]: 107 counts
radioactive counts recorded in twenty minutes [4]: 519 counts

DQKEEVQLLVFGLTANSD
COUNTS of radiolabeled gp120 retained [9]: 3317 counts

IIKNLKIED
COUNTS of radiolabeled gp120 retained [1]: 658 counts

FGLTANSDTHLLQGQSLT
COUNTS of radiolabeled gp120 retained [9]: 591 counts

GEAVEFSFPLAFTVE
COUNTS of radiolabeled gp120 retained [10]: 19756 counts and 17500 counts

VVLAFQKASSIVYKKEGEQVE
COUNTS of radiolabeled gp120 retained [2]: 772 counts

FWAVDAVANWYFGNFLCK [CXCR4 segment 93-110]
radioactive counts recorded in twenty minutes [3]: 66 counts
radioactive counts recorded in twenty minutes [4]: 478 counts

YAGSGNLTLALEAKTGKLHQE [human CD4 291-311]
number of radioactive decays (counts) counted: 1830 counts

IIKNLKIEDSDT
COUNTS of radiolabeled gp120 retained [1]: 511 counts

FREENANFNKIFLPTIYS [CXCR4 segment 29-46]
radioactive counts recorded in twenty minutes [3]: 51 counts
radioactive counts recorded in twenty minutes [4]: 463 counts

QNQKKVEFK
COUNTS of radiolabeled gp120 retained [5]: 537 counts

EVNLVVMRATQLQKNLTCEVW [human CD4 311-331]
number of radioactive decays (counts) counted: 2183 counts

LIIKNLKIEDSD
COUNTS of radiolabeled gp120 retained [1]: 619 counts

DYHEDYGFSSFNDSSQEE [STRL33 segment 5-22]
radioactive counts recorded in twenty minutes [6]: 3357.5 counts
radioactive counts recorded in twenty minutes [7]: 3689.5 counts
Binding Results For Window Length (counts bound-background), 9 (background subtracted): 851 counts
Binding Results For Window Length (counts bound-background), 12 (background subtracted): 1554 counts
Binding Results For Window Length (counts bound-background), 15 (background subtracted): 1240 counts
Binding Results For Window Length (counts bound-background), 18 (background subtracted): 1191 counts

IVVLAFQKASSIVYKKEG
COUNTS of radiolabeled gp120 retained [8]: 531 counts

QLLVFGLTA
COUNTS of radiolabeled gp120 retained [1]: 822 counts

FNLDKLICGYHDEAISTV
radioactive counts recorded in twenty minutes [6]: 1072.5 counts
radioactive counts recorded in twenty minutes [7]: 1078.5 counts

LQNQKKVEFKIDIVV
COUNTS of radiolabeled gp120 retained [8]: 644 counts

VTETLGMTHCCINPIIYA [CCR5 segment 281-]
Counts per 20′ Average-background (background subtracted): 15 counts per 20′

MEAISIYTSDNYTEEMGS
Relative % of Control (CXCR4 (1-18) alanine variants): 101 ± 3%

MDYQVSSPIYDINYATSE [CCR5 (1-18) variant Y15A]
Relative % of Control (CCR5 (1-18) alanine variants): 21 ± 5%
percentage of binding of mutant polypeptide compared to wild-type polypeptide, gp120: 21%

QVEFSFPLAFTVEKLTGSGEL
COUNTS of radiolabeled gp120 retained [2]: 741 counts

EHDYHEDYGFSSFNDSSQ
Binding Results For Window Length (counts bound-background), 9 (background subtracted): 509 counts
Binding Results For Window Length (counts bound-background), 12 (background subtracted): 937 counts
Binding Results For Window Length (counts bound-background), 15 (background subtracted): 2235 counts
Binding Results For Window Length (counts bound-background), 18 (background subtracted): 1219 counts

FPLIIKNLKIED
COUNTS of radiolabeled gp120 retained [1]: 511 counts

FSFPLAFTVEKLTGS
COUNTS of radiolabeled gp120 retained [8]: 672 counts

NPIIYAFVGEKFRNYLLV [CCR5 segment 293-]
Counts per 20′ Average-background (background subtracted): 162 counts per 20′

SDTHLLQGQSLT
COUNTS of radiolabeled gp120 retained [1]: 540 counts

GQVLLESNIKVLPTWSTPVQP [human CD4 376-396]
number of radioactive decays (counts) counted: 2089 counts

PLAFTVEKLTGSGELWWQAER
COUNTS of radiolabeled gp120 retained [2]: 2647 counts

QVEFSFPLAFTVEKLTGS
COUNTS of radiolabeled gp120 retained [8]: 736 counts

EQVEFSFPLAFT
COUNTS of radiolabeled gp120 retained [5]: 1556 counts

SSSKSWITFDLKNKEVSVKRV [human CD4 246-266]
number of radioactive decays (counts) counted: 1761 counts

KEEVQLLVFGLTANSDTH
COUNTS of radiolabeled gp120 retained [9]: 1271 counts

QKHIAKRFCKCCSIFQQE [CCR5 segment 313-]
Counts per 20′ Average-background (background subtracted): 23 counts per 20′
